# Measurements: article PMC7753147, “High-throughput determination of protein affinities using unmodified peptide libraries in nanomolar scale” (iScience, 2020)
# Experiments:
# native geph = test: µSPOT peptide microarray binding assay with native geph from mouse brain lysate
# gephE = test: µSPOT peptide microarray binding assay with recombinant gephE
# FL-geph = test: µSPOT peptide microarray binding assay with full-length geph
# [1] = µSPOT peptide microarray, GlyRβ full positional scan, native geph from mouse brain lysate, intensity normalised to wild-type sequence DLRSNDFSIVGSLPR (=1)
# [2] = µSPOT peptide microarray, GlyRβ full positional scan, recombinant gephE, intensity normalised to wild-type sequence DLRSNDFSIVGSLPR (=1)
# [3] = µSPOT peptide microarray, GlyRβ full positional scan, intensity normalised to wild-type sequence DLRSNDFSIVGSLPR (=1)
# [4] = µSPOT full positional scan of GlyRβ 15-mer DLRSNDFSIVGSLPR, native geph, intensity normalised to wild-type sequence (= 1)
# [5] = µSPOT full positional scan of GlyRβ 15-mer DLRSNDFSIVGSLPR, intensity normalised to wild-type sequence (= 1)
Sequence,Native geph Binding Intensity [norm.] (native geph; [1]),gephE Binding Intensity [norm.] (gephE; [2]),Fl-geph Binding Intensity [norm.] (FL-geph; [3]),Native geph Binding Intensity [norm.] (native geph; [4]),gephE Binding Intensity [norm.] (gephE; [5]),Fl-geph Binding Intensity [norm.] (FL-geph; [5])
"DLRSNDKSIVGSLPR [GlyRβ_Full_Positional_Scan_134, GlyR β 414-428 variant F420K]",0.3 norm.,0.53 norm.,0.61 norm.,–,–,–
DLRDNDFSIVGSLPR [GlyRβ_Full_Positional_Scan_070],1.34 norm.,0.95 norm.,1.09 norm.,–,–,–
DLRSNAFSIVGSLPR [GlyRβ_Full_Positional_Scan_101],0.77 norm.,0.98 norm.,1.04 norm.,–,–,–
DLRFNDFSIVGSLPR [GlyRβ_Full_Positional_Scan_067],0.98 norm.,0.92 norm.,0.92 norm.,–,–,–
DGRSNDFSIVGSLPR [GlyRβ_Full_Positional_Scan_022],0.92 norm.,0.98 norm.,0.94 norm.,–,–,–
NLRSNDFSIVGSLPR [GlyRβ_Full_Positional_Scan_019],1.28 norm.,1.15 norm.,1 norm.,–,–,–
DLRSNEFSIVGSLPR [GlyRβ_Full_Positional_Scan_111],0.97 norm.,0.96 norm.,0.94 norm.,–,–,–
DLISNDFSIVGSLPR [GlyRβ_Full_Positional_Scan_043],1.69 norm.,0.9 norm.,1.35 norm.,–,–,–
PLRSNDFSIVGSLPR [GlyRβ_Full_Positional_Scan_005],0.72 norm.,1.1 norm.,1.16 norm.,–,–,–
DLRSNQFSIVGSLPR [GlyRβ_Full_Positional_Scan_120],0.53 norm.,0.95 norm.,0.78 norm.,–,–,–
DLRSNMFSIVGSLPR [GlyRβ_Full_Positional_Scan_118],0.62 norm.,0.85 norm.,0.84 norm.,–,–,–
DLRSNYFSIVGSLPR [GlyRβ_Full_Positional_Scan_109],0.38 norm.,0.82 norm.,0.7 norm.,–,–,–
DSRSNDFSIVGSLPR [GlyRβ_Full_Positional_Scan_035],0.97 norm.,0.97 norm.,0.97 norm.,–,–,–
DLRHNDFSIVGSLPR [GlyRβ_Full_Positional_Scan_073],0.86 norm.,0.92 norm.,0.84 norm.,–,–,–
DTRSNDFSIVGSLPR [GlyRβ_Full_Positional_Scan_036],1.09 norm.,0.94 norm.,0.97 norm.,–,–,–
DLRSNVFSIVGSLPR [GlyRβ_Full_Positional_Scan_106],0.58 norm.,0.81 norm.,0.95 norm.,–,–,–
DLRWNDFSIVGSLPR [GlyRβ_Full_Positional_Scan_068],0.95 norm.,0.92 norm.,0.81 norm.,–,–,–
DLRSNWFSIVGSLPR [GlyRβ_Full_Positional_Scan_108],0.32 norm.,0.79 norm.,0.65 norm.,–,–,–
DLRENDFSIVGSLPR [GlyRβ_Full_Positional_Scan_071],1.11 norm.,0.93 norm.,0.97 norm.,–,–,–
DLRSDDFSIVGSLPR [GlyRβ_Full_Positional_Scan_090],0.98 norm.,0.96 norm.,0.94 norm.,–,–,–
DLRSNKFSIVGSLPR [GlyRβ_Full_Positional_Scan_114],0.37 norm.,0.8 norm.,0.98 norm.,–,–,–
DLRLNDFSIVGSLPR [GlyRβ_Full_Positional_Scan_064],0.88 norm.,0.9 norm.,0.89 norm.,–,–,–
TLRSNDFSIVGSLPR [GlyRβ_Full_Positional_Scan_016],0.79 norm.,1.16 norm.,0.85 norm.,–,–,–

# More lines, now with the values ahead:
Native geph Binding Intensity [norm.] (native geph; [1]),gephE Binding Intensity [norm.] (gephE; [2]),Fl-geph Binding Intensity [norm.] (FL-geph; [3]),Native geph Binding Intensity [norm.] (native geph; [4]),gephE Binding Intensity [norm.] (gephE; [5]),Fl-geph Binding Intensity [norm.] (FL-geph; [5]),Sequence
–,–,–,0.36 norm.,0.62 norm.,0.67 norm.,DLRSNDFSIVGSLCR [GlyRβ_Full_Positional_Scan_277]
0.32 norm.,0.57 norm.,0.53 norm.,–,–,–,"DLRSNDFSQVGSLPR [GlyRβ_Full_Positional_Scan_180, GlyR β 414-428 variant I422Q]"
–,–,–,1.11 norm.,1.05 norm.,1.05 norm.,DLRSNDFSIVGSLPL [GlyRβ_Full_Positional_Scan_284]
0.47 norm.,0.66 norm.,0.9 norm.,–,–,–,"DLRSNDFQIVGSLPR [GlyRβ_Full_Positional_Scan_160, GlyR β 414-428 variant S421Q]"
–,–,–,0.89 norm.,0.86 norm.,1.14 norm.,DLRSNDFSIVGSTPR [GlyRβ_Full_Positional_Scan_256]
–,–,–,0.45 norm.,0.62 norm.,1.05 norm.,DLRSNDFSIVGILPR [GlyRβ_Full_Positional_Scan_223]
–,–,–,1.16 norm.,0.74 norm.,1.17 norm.,DLRSNDFSIVGNLPR [GlyRβ_Full_Positional_Scan_239]
–,–,–,0.96 norm.,1.06 norm.,0.97 norm.,DLRSNDFSIVGSLPV [GlyRβ_Full_Positional_Scan_286]
–,–,–,0.49 norm.,0.82 norm.,0.84 norm.,DLRSNDFSIVGSLPE [GlyRβ_Full_Positional_Scan_291]
–,–,–,0.8 norm.,0.76 norm.,0.97 norm.,DLRSNDFSIVGSQPR [GlyRβ_Full_Positional_Scan_260]
–,–,–,1.05 norm.,0.94 norm.,0.98 norm.,DLRSNDFSIVGTLPR [GlyRβ_Full_Positional_Scan_236]
0.36 norm.,0.66 norm.,0.71 norm.,–,–,–,"DLRSNDFCIVGSLPR [GlyRβ_Full_Positional_Scan_157, GlyR β 414-428 variant S421C]"
0.24 norm.,0.73 norm.,0.79 norm.,–,–,–,"DLRSNDFWIVGSLPR [GlyRβ_Full_Positional_Scan_148, GlyR β 414-428 variant S421W]"
–,–,–,0.49 norm.,0.74 norm.,0.96 norm.,DLRSNDFSIVGSLTR [GlyRβ_Full_Positional_Scan_276]
–,–,–,1.23 norm.,0.99 norm.,0.87 norm.,DLRSNDFSIVGSYPR [GlyRβ_Full_Positional_Scan_249]
0.27 norm.,0.48 norm.,0.56 norm.,–,–,–,"DLRSNDFSIGGSLPR [GlyRβ_Full_Positional_Scan_182, GlyR β 414-428 variant V423G]"
–,–,–,0.59 norm.,0.78 norm.,0.71 norm.,DLRSNDFSIVGSLYR [GlyRβ_Full_Positional_Scan_269]
0.2 norm.,0.41 norm.,0.48 norm.,–,–,–,"DLRSNDFSIVYSLPR [GlyRβ_Full_Positional_Scan_209, GlyR β 414-428 variant G424Y]"
–,–,–,0.48 norm.,0.63 norm.,0.83 norm.,DLRSNDFSIVGCLPR [GlyRβ_Full_Positional_Scan_237]
–,–,–,0.17 norm.,0.38 norm.,0.41 norm.,"DLRSNDFSIVNSLPR [GlyRβ_Full_Positional_Scan_219, GlyR β 414-428 variant G424N]"
–,–,–,0.97 norm.,0.9 norm.,1.03 norm.,DLRSNDFSIVGSNPR [GlyRβ_Full_Positional_Scan_259]
